Consider three molecules from patent US10874644B2, “Therapeutic approaches for treating Alzheimer disease and related disorders through a modulation of synapse function” (Pharnext, priority 2008, dated 2020).

Data set [1] relates to rat primary cortical neurons. Kind of data set: Neurite outgrowth (neurites length) in beta-amyloid Aβ25-35 intoxicated rat primary cortical neuron culture. The settings on record: Aβ25-35 20 μM for 2 days, drug added 1 hour before, Fig. 1A, 1B. It is filed as cell-based. An excerpt: Viable cells are counted in a Neubauer cytometer using the trypan blue exclusion test.
For data set [2], the system named is rat primary cortical neurons. Kind of data set: LDH release in human Aβ1-42 toxicity on rat primary cortical cells. The data set is classed as cell-based. As to conditions: 1 h pre-treatment, Aβ1-42 10 μM for 24 h. On the procedure:
Primary rat cortical neurons are cultured as described previously. […] The control medium was prepared in the same conditions.
Cortical neurons were intoxicated for 24 hours. Three separate cultures were performed per condition, 6 wells per condition.
This colorimetric assay for the quantification of cell toxicity is based on the measurement of lactate dehydrogenase (LDH) activity released from the cytosol of dying cells into the supernatant.
Background: LDH in the medium is a marker of cell lysis.

Take `CC(=O)NCCCS(=O)(=O)O` [Acamprosate]: the “Prevention of Aβ25-35 intoxication (neurite outgrowth, neurites length)” value (from here on “Prevention of Aβ25-35 intoxication”) in data set [1] is “significantly prevented”.

With `NS(=O)(=O)Cc1noc2ccccc12` [Zonisamide], the “Prevention of Aβ25-35 intoxication” value in data set [1] is given as “significantly prevented”. Further, the “Prevention of Aβ1-42 intoxication, change of LDH release” value in data set [2] (Fig. 3B, 3C) is reported as −75%.

B1: BDNF: Brain-derived neurotrophic factor, used as a positive (neuroprotective) control (protein, UniProt P23560 19-247, looked up)
Neurotrophic factor BDNF …: APMKEANIRGQGGLAYPGVRTHGTLESVNGPKAGSRGLTSLADTFEHVIEELLDEDQKVRPNEENNKDADLYTSRVMLSSQVPLEPPLLFLLEEYKNYLDAANMSMRVRRHSDPARRGELSVCDSISEWVTAADKKTAVDMSGGTVTVLEKVPVSKGQLKQYFYETKCNPMGYTKEGCRGIDKRHWNSQCRTTQSYVRALTMDSKKRIGWRFIRIDTSCVCTLTIKRGR
Consider B1, for which the “Prevention of Aβ25-35 intoxication” value in data set [1] is “efficiently prevented”. For the same molecule, in data set [2] (Fig. 3A), the “Protection from Aβ1-42 amyloid injury (LDH release)” value is on record as “significantly protected”.
